In the NIST ThermoML archive (doi:10.1021/acs.jced.9b00846):

Conditions: Liquid, Vibrating tube method

CC(C)CC(C)C [2,4-dimethylpentane]
Conditions	mass density [kg/m3]
283.15 K, 95 kPa	681.7
283.15 K, 4961 kPa	686.3
283.15 K, 9969 kPa	690.9
283.15 K, 14980 kPa	695.1
283.15 K, 19985 kPa	699.1
283.15 K, 25039 kPa	702.9
283.15 K, 30016 kPa	706.5
283.15 K, 35089 kPa	710
283.15 K, 40016 kPa	713.3
283.15 K, 45012 kPa	716.4
283.15 K, 49972 kPa	719.5
283.15 K, 54980 kPa	722.4
283.15 K, 59931 kPa	725.3
283.15 K, 65047 kPa	728.1
288.15 K, 127 kPa	677.3
288.15 K, 4984 kPa	682.2
288.15 K, 9987 kPa	686.8
288.15 K, 14976 kPa	691.2
288.15 K, 19996 kPa	695.3
288.15 K, 24895 kPa	699.2
288.15 K, 30002 kPa	703
288.15 K, 34983 kPa	706.5
288.15 K, 40000 kPa	709.9
288.15 K, 44974 kPa	713.1
288.15 K, 49950 kPa	716.2
288.15 K, 55010 kPa	719.3
288.15 K, 60065 kPa	722.2
288.15 K, 64958 kPa	725
293.15 K, 83 kPa	672.8
293.15 K, 4982 kPa	677.9
293.15 K, 9969 kPa	682.7
293.15 K, 15059 kPa	687.3
293.15 K, 19914 kPa	691.5
293.15 K, 25056 kPa	695.6
293.15 K, 29936 kPa	699.3
293.15 K, 34976 kPa	703
293.15 K, 39994 kPa	706.4
293.15 K, 44992 kPa	709.8
293.15 K, 50030 kPa	713
293.15 K, 54953 kPa	716
293.15 K, 59933 kPa	719
293.15 K, 65045 kPa	721.9
298.15 K, 92 kPa	668.3
298.15 K, 4941 kPa	673.6
298.15 K, 9982 kPa	678.6
298.15 K, 14991 kPa	683.3
298.15 K, 19963 kPa	687.6
298.15 K, 25048 kPa	691.8
298.15 K, 29972 kPa	695.7
298.15 K, 34945 kPa	699.4
298.15 K, 39958 kPa	702.9
298.15 K, 45007 kPa	706.4
298.15 K, 49963 kPa	709.6
298.15 K, 55008 kPa	712.8
298.15 K, 60003 kPa	715.8
298.15 K, 65017 kPa	718.8
303.15 K, 72 kPa	663.8
303.15 K, 4969 kPa	669.3
303.15 K, 9974 kPa	674.5
303.15 K, 14963 kPa	679.3
303.15 K, 19981 kPa	683.9
303.15 K, 25047 kPa	688.2
303.15 K, 29954 kPa	692.1
303.15 K, 34987 kPa	695.9
303.15 K, 39964 kPa	699.6
303.15 K, 45006 kPa	703.1
303.15 K, 49991 kPa	706.4
303.15 K, 55060 kPa	709.7
303.15 K, 59991 kPa	712.8
303.15 K, 65054 kPa	715.8
308.15 K, 100 kPa	659.4
308.15 K, 4987 kPa	665.1
308.15 K, 9965 kPa	670.4
308.15 K, 15040 kPa	675.5
308.15 K, 19960 kPa	680.1
308.15 K, 24964 kPa	684.4
308.15 K, 30076 kPa	688.7
308.15 K, 34985 kPa	692.5
308.15 K, 39972 kPa	696.2
308.15 K, 44972 kPa	699.8
308.15 K, 49955 kPa	703.2
308.15 K, 54996 kPa	706.5
308.15 K, 60063 kPa	709.7
308.15 K, 65021 kPa	712.7
313.15 K, 108 kPa	654.9
313.15 K, 5004 kPa	660.8
313.15 K, 10013 kPa	666.4
313.15 K, 15049 kPa	671.6
313.15 K, 19963 kPa	676.3
313.15 K, 25062 kPa	680.9
313.15 K, 29960 kPa	685
313.15 K, 34942 kPa	689
313.15 K, 40039 kPa	692.9
313.15 K, 45017 kPa	696.6
313.15 K, 50065 kPa	700.1
313.15 K, 54977 kPa	703.4
313.15 K, 59923 kPa	706.6
313.15 K, 64996 kPa	709.7
318.15 K, 110 kPa	650.2
318.15 K, 5061 kPa	656.5
318.15 K, 9957 kPa	662.2
318.15 K, 15002 kPa	667.6
318.15 K, 19980 kPa	672.5
318.15 K, 25013 kPa	677.1
318.15 K, 30045 kPa	681.5
318.15 K, 34965 kPa	685.6
318.15 K, 39938 kPa	689.5
318.15 K, 44971 kPa	693.2
318.15 K, 49989 kPa	696.8
318.15 K, 55009 kPa	700.2
318.15 K, 59952 kPa	703.5
318.15 K, 65056 kPa	706.7
323.15 K, 121 kPa	645.6
323.15 K, 5001 kPa	652.1
323.15 K, 10007 kPa	658.1
323.15 K, 15037 kPa	663.6
323.15 K, 19969 kPa	668.7
323.15 K, 25018 kPa	673.5
323.15 K, 29938 kPa	677.9
323.15 K, 35006 kPa	682.2
323.15 K, 39965 kPa	686.1
323.15 K, 45012 kPa	690
323.15 K, 49970 kPa	693.6
323.15 K, 54953 kPa	697.1
323.15 K, 59965 kPa	700.4
323.15 K, 65022 kPa	703.7
328.15 K, 98 kPa	641
328.15 K, 5010 kPa	647.8
328.15 K, 9934 kPa	653.9
328.15 K, 14950 kPa	659.6
328.15 K, 19968 kPa	664.9
328.15 K, 25011 kPa	669.8
328.15 K, 30040 kPa	674.5
328.15 K, 34952 kPa	678.7
328.15 K, 39959 kPa	682.8
328.15 K, 45017 kPa	686.8
328.15 K, 49935 kPa	690.4
328.15 K, 54941 kPa	694
328.15 K, 59962 kPa	697.4
328.15 K, 65006 kPa	700.8
333.15 K, 92 kPa	636.3
333.15 K, 4968 kPa	643.3
333.15 K, 9977 kPa	649.8
333.15 K, 15014 kPa	655.7
333.15 K, 19986 kPa	661.1
333.15 K, 25001 kPa	666.2
333.15 K, 29959 kPa	670.9
333.15 K, 34922 kPa	675.3
333.15 K, 39972 kPa	679.5
333.15 K, 45064 kPa	683.6
333.15 K, 50006 kPa	687.3
333.15 K, 54975 kPa	691
333.15 K, 59984 kPa	694.5
333.15 K, 64995 kPa	697.8
338.15 K, 107 kPa	631.7
338.15 K, 5007 kPa	639.1
338.15 K, 9978 kPa	645.7
338.15 K, 14968 kPa	651.8
338.15 K, 19968 kPa	657.4
338.15 K, 25042 kPa	662.7
338.15 K, 30018 kPa	667.5
338.15 K, 35052 kPa	672.1
338.15 K, 39990 kPa	676.3
338.15 K, 45087 kPa	680.5
338.15 K, 49968 kPa	684.3
338.15 K, 55044 kPa	688.1
338.15 K, 60031 kPa	691.6
338.15 K, 64997 kPa	695
343.15 K, 98 kPa	626.8
343.15 K, 4944 kPa	634.4
343.15 K, 10008 kPa	641.5
343.15 K, 14958 kPa	647.7
343.15 K, 19959 kPa	653.5
343.15 K, 25045 kPa	658.9
343.15 K, 30012 kPa	663.9
343.15 K, 34980 kPa	668.5
343.15 K, 40024 kPa	672.9
343.15 K, 44956 kPa	677.1
343.15 K, 50037 kPa	681.1
343.15 K, 55010 kPa	684.9
343.15 K, 59979 kPa	688.5
343.15 K, 65088 kPa	692.1
348.15 K, 103 kPa	622
348.15 K, 4998 kPa	630
348.15 K, 9948 kPa	637.2
348.15 K, 15016 kPa	643.8
348.15 K, 19991 kPa	649.7
348.15 K, 25051 kPa	655.3
348.15 K, 29994 kPa	660.3
348.15 K, 34970 kPa	665.1
348.15 K, 39979 kPa	669.6
348.15 K, 45063 kPa	673.9
348.15 K, 50024 kPa	678
348.15 K, 54974 kPa	681.8
348.15 K, 59994 kPa	685.5
353.15 K, 1014 kPa	618.8
353.15 K, 5010 kPa	625.6
353.15 K, 9950 kPa	633
353.15 K, 15037 kPa	639.9
353.15 K, 19996 kPa	646
353.15 K, 25024 kPa	651.7
353.15 K, 29983 kPa	656.9
353.15 K, 34950 kPa	661.8
353.15 K, 40060 kPa	666.5
353.15 K, 45017 kPa	670.8
353.15 K, 49987 kPa	674.9
353.15 K, 54976 kPa	678.9
353.15 K, 59989 kPa	682.7
358.15 K, 5026 kPa	621
358.15 K, 9954 kPa	628.7
358.15 K, 15017 kPa	635.8
358.15 K, 19926 kPa	642
358.15 K, 25014 kPa	647.9
358.15 K, 30045 kPa	653.4
358.15 K, 35004 kPa	658.3
358.15 K, 40013 kPa	663.1
358.15 K, 44988 kPa	667.5
358.15 K, 49996 kPa	671.7
358.15 K, 55037 kPa	675.8
358.15 K, 60020 kPa	679.6
358.15 K, 65016 kPa	683.3
363.15 K, 4947 kPa	616.2
363.15 K, 10031 kPa	624.5
363.15 K, 15019 kPa	631.7
363.15 K, 19970 kPa	638.2
363.15 K, 25122 kPa	644.3
363.15 K, 30059 kPa	649.8
363.15 K, 35064 kPa	654.9
363.15 K, 40055 kPa	659.8
363.15 K, 45078 kPa	664.3
363.15 K, 49933 kPa	668.5
363.15 K, 54989 kPa	672.7
363.15 K, 59992 kPa	676.6
363.15 K, 65058 kPa	680.3
